Data set [1] relates to decerebrate rigidity in rats. Kind of data set: Suppression of decerebrate rigidity in rats. Type of data set: in vivo, rat. From the text:
The suppression of decerebrate rigidity in laboratory animals, such as rats, is a well known model for control of human spasticity and/or rigidity.
In the test method, a rat was anesthetized with halothane and fixed on a stereotaxic apparatus (SR-5, Narishige). In accordance with the brain atlas by Pellegrino et al., [L. J. Pellegrino, A. S. Pellegrino & A. J. Cushman: A Stereotaxic Atlas of the Rat Brain, Plenum Press, New York and London (1967)], an electrode 0.7 mm in diameter, which was insulated except for 1 mm at the tip, was inserted bilaterally into the midbrain reticular formation (AP: 0, L: ±1.5, H: -3.0). A clip serving as the reference electrode was fixed on the temporal muscle. Through these electrodes, a high frequency electric current (100 KHz, 10 to 20 mA) was applied from a lesion generator (Glass Co., LM4A) for 2 to 3 minutes to cauterize electrically this brain region.
The rat was then immediately set free from the stereotaxic apparatus. A polyethylene cannula was inserted into the duodenum and fixed with an acrylic resin (Aron Alfa, Sankyo Co., Ltd.). After completion of these operations, halothane anesthesia was immediately discontinued.
After 1.5 hours, when the animal awoke from the anesthesia, the rat was fixed on an apparatus devised in our laboratory for a hind leg fixation. Both hind legs were fixed at the anterior part of the ankle joints. Both hindlimb paws were then pushed in 4 mm for 6 seconds in every minute. The resulting repulsive tension was drawn on a polygraph through a strain gauge.
The test compounds were suspended in a 0.5% w/v CMC (carboxymethyl cellulose) aqueous solution and were administered orally (p.o.) or intraperitoneally (i.p.).
The results are summarized in the following Table 7, where the compounds of the present invention are identified by the number of the foregoing Example in which each was prepared, Compound X is the known compound eperisone hydrochloride, and Compound Y is the known compound afloqualone.

In data set [2] the test system is spinal reflex in cats. Kind of data set: Effect on spinal reflex in cats. It is filed as in vivo, cat. The procedure: Adult cats weighing 3.0 to 4.5 kg each were used. After induction of anesthesia with ether, the animal was anesthetized by intravenous injection of 50 mg/kg of a-chloralose. After the trachea was cannulated, the animal was fixed on a stereotaxic apparatus, and the lumbosacral spinal cord was exposed by laminectomy from L3 to S1. The ventral roots of the right side were cut from L6 to S1 as distal as possible and the cut ends were ligated with cotton thread previously immersed in Ringer's solution. The exposed spinal cord was covered with warmed mineral oil and maintained at 37° C. The ventral root, either L7 or S1, was fixed on a pair of platinum wire electrodes. A pair of collar-type electrodes was implanted on the ipsilateral tibial nerve and the saphenous nerve, for stimulation. After completion of all these operations, the cat was immobilized with pancronium bromide (0.5 mg/kg, i.v.) and maintained by artificial respiration (40/minute). Recording was started at least 2 hours after withdrawal of ether anesthesia. A single square pulse (0.01 to 0.1 msecond pulse width, supramaximal intensity) was applied to the nerve at a frequency of 0.3 Hz from an electronic stimulator. […] In a similar manner to Experiment 2, the blood pressure, heart beat and body temperature of the animal were recorded and monitored. Compounds to be tested were also administered in a similar manner.

In data set [3] the test system is decerebrate rigidity (cats). The data set can be described thus: Suppression of decerebrate rigidity (cats). The settings on record: 50 mg/kg intraduodenal. Type of data set: in vivo, cat. An excerpt:
Adult cats each weight 3.0 to 4.5 kg were used. Under ether anesthesia, the trachea was cannulated and the common carotid arteries were ligated at both sides. The cat was decerebrated by suction at the precollicular level. Ether anesthesia was then immediately discontinued. A pair of needle electrodes was inserted into the neck muscle in order to pick up any EMG muscular discharges. The EMG discharge was amplified and recorded on a pen-writing recorder, along with an integration of the EMG discharge. Recording was started at least 2 hours after withdrawal of anesthesia. Blood pressure induced from the femoral artery, as well as body temperature and heart beat, were recorded and monitored throughout the experiment.
After stable EMG discharges were obtained, the test compounds suspended in 0.5% CMC solution were administered into the duodenum through a previously inserted cannula. The effect of the test compound was expressed as the ratio of the integrated EMG discharge after administration relative to the value before administration.

For data set [4], the system named is thiopental anesthesia. The data set can be described thus: Potentiation of thiopental anesthesia (mice). Type of data set: in vivo, mouse (ddY strain). As to conditions: for Anesthesia time: thiopental 30 mg/kg after one hour. The procedure:
In the test method, male adult mice of ddY strain each weighing 20 to 30 g were used as divided groups each made up of 5 to 7 mice. Test compounds suspended in 0.5% CMC solution were orally administered. After one hour, thiopental (30 mg/kg) was injected into the tail vein, and the time required for the mouse to recover the righting reflex was measured.

Setting [5] is: Rattus norvegicus, ip, 50 mg/kg i.p., read-out: Maximum inhibition.
Where [6] appears, read: Rattus norvegicus, po, 100 mg/kg p.o., read-out: Maximum inhibition.
Where [7] appears, read: Rattus norvegicus, po, read-out: Maximum inhibition.

Structures are written as SMILES. Structures can show the parent of a compound that is named as a salt. Where two headings read alike, the source gives them in different places.

In the case of `Cc1c(-c2ccccc2)on(CC(O)CN2CCOCC2)c1=O.Cl` (centres unmarked) [Example 2, 2-(2-Hydroxy-3-morpholinopropyl)-4-methyl-5-phenyl-3-isoxazolone hydrochloride], in data set [1] (100 mg/kg i.p.), the “Duration of the effect” value was above 90 min and the “Onset of the effect” value is 5 min. Further, the inhibition in vivo at 100 mg/kg in data set [1] (Rattus norvegicus, ip, 100 mg/kg i.p., read-out: Maximum inhibition) came to 60%.

For the molecule `CC(C)NCC(O)Cn1oc(-c2ccccc2)cc1=O` (centres unmarked) [Compound 6a], in data set [1] (50 mg/kg i.p.), the “Duration of the effect” value turned out to be 60 min and the “Onset of the effect” value turned out to be 5 min. For the same molecule, in data set [1] (setting [5]), the inhibition in vivo at 50 mg/kg turned out to be 30%.

In the case of `NC(=O)OCC(O)COc1ccc(Cl)cc1` (centres unmarked) [chlorphenesin carbamate, reference compound], in data set [2] (100 mg/kg), the “Effect on spinal reflexes, compared with Compounds 1a and 2a” value is listed as “A similar effect was observed”. For the same molecule, the “Mechanism shown by spinal reflexes” value in data set [2] (in vivo) was “interneuron blockers”.

Turning to `NC(=O)OCC(O)Cn1oc2ccc(Cl)cc2c1=O` (centres unmarked) [Example 15, 2-(3-Carbamoyloxy-2-hydroxypropyl)-5-chloro-1,2-benzisoxazol-3-one], in data set [1] (50 mg/kg i.p.), the “Duration of the effect” value was above 60 min and the “Onset of the effect” value came to 5 min. Also, in data set [1] (setting [5]), the inhibition in vivo at 50 mg/kg was 50%.

For `O=c1cc(-c2ccc(Cl)cc2)on1CC(O)CN1CCOCC1` (centres unmarked) [Compound 4a], in data set [1] (50 mg/kg i.p.), the “Duration of the effect” value was above 120 min and the “Onset of the effect” value is 5 min. Besides, the inhibition in vivo at 50 mg/kg in data set [1] (setting [5]) was found to be 80%.

Consider `CC(C)NCC(O)Cn1oc(-c2ccccc2)c(Cl)c1=O` (centres unmarked) [Compound 5a], for which, in data set [1] (50 mg/kg i.p.), the “Duration of the effect” value is above 120 min and the “Onset of the effect” value is 5 min. The inhibition in vivo at 50 mg/kg in data set [1] (setting [5]) was 95%.

In the case of `CCc1ccc(C(=O)C(C)CN2CCCCC2)cc1` (centres unmarked) [Compound X, eperisone hydrochloride, reference compound], the “Duration of the effect” value was above 30 min in data set [1] (10 mg/kg p.o.), 45 min in data set [1] (30 mg/kg p.o.), 30 min in data set [1] (50 mg/kg p.o.) and 60 min in data set [1] (100 mg/kg p.o.). The “Onset of the effect” value was 10 min in data set [1] (10 mg/kg p.o.), 10 min in data set [1] (30 mg/kg p.o.), 10 min in data set [1] (50 mg/kg p.o.) and 5 min in data set [1] (100 mg/kg p.o.). Besides, the inhibition in vivo at 10 mg/kg in data set [1] (Rattus norvegicus, po, 10 mg/kg p.o., read-out: Maximum inhibition) turned out to be 30%. Further, the inhibition in vivo at 30 mg/kg in data set [1] (Rattus norvegicus, po, 30 mg/kg p.o., read-out: Maximum inhibition) stood at 30%. Also, the inhibition in vivo at 50 mg/kg in data set [1] (Rattus norvegicus, po, 50 mg/kg p.o., read-out: Maximum inhibition) is 50%. In addition, the inhibition in vivo at 100 mg/kg in data set [1] (setting [6]) was determined as 50%. Also, the “Inhibition of decerebrate rigidity, in words” value in data set [3] is on record as “decerebrate rigidity was inhibited”. The “Side effects (vomiting, changes in blood pressure and heart beat)” value in data set [3] was “induced vomiting immediately after administration accompanied with abrupt changes in blood pressure and heart beat”. Further, in data set [3], the “Time after administration at which decerebrate rigidity returned” value was found to be 30 min. The Anesthesia time in data set [4] (10 mg/kg p.o.) is 182.0 ± 9.8 s; in data set [4] (30 mg/kg p.o.), 192.0 ± 18.3 s; in data set [4] (100 mg/kg p.o.), 247.0 ± 34.9 s.

On to `CC(C)NCC(O)Cn1oc(-c2ccc(Cl)cc2)cc1=O` (centres unmarked) [Compound 7a], for which, in data set [1] (50 mg/kg i.p.), the “Duration of the effect” value is 60 min and the “Onset of the effect” value was found to be 5 min. Besides, in data set [1] (setting [5]), the inhibition in vivo at 50 mg/kg was determined as 75%.

For the molecule `Cc1ccccc1-n1c(CF)nc2ccc(N)cc2c1=O` [Compound Y, afloqualone, reference compound], in data set [1] (5 mg/kg p.o.), the “Duration of the effect” value stood at 60 min and the “Onset of the effect” value turned out to be 10 min. In data set [1] (10 mg/kg p.o.), the “Duration of the effect” value turned out to be 45 min and the “Onset of the effect” value worked out at 10 min. In addition, in data set [1] (30 mg/kg p.o.), the “Duration of the effect” value came to 120 min and the “Onset of the effect” value was 10 min. For the same molecule, in data set [1] (setting [7]), the inhibition in vivo at 5 mg/kg amounted to 25%, the inhibition in vivo at 10 mg/kg came out at 55% and the inhibition in vivo at 30 mg/kg came out at 70%. The Anesthesia time in data set [4] (10 mg/kg p.o.) turned out to be 242.0 ± 10.0 s. Besides, in data set [4] (30 mg/kg), the “Prolongation of the duration of anesthesia, in words” value is on record as “did significantly prolong the duration of anesthesia”. Also, the Anesthesia time in data set [4] (30 mg/kg p.o.) was determined as 4657.0 ± 636.6 s.

As to `Cc1cc(=O)n(CC(O)CN2CCOCC2)o1` (centres unmarked) [Compound 3a], in data set [1] (50 mg/kg i.p.), the “Duration of the effect” value is 50 min and the “Onset of the effect” value worked out at 5 min. In addition, the inhibition in vivo at 50 mg/kg in data set [1] (setting [5]) worked out at 30%.

For the molecule `Cc1c(OCC(O)CN2CCOCC2)noc1-c1ccccc1` (centres unmarked) [Example 5, 3-(2-Hydroxy-3-morpholinopropoxy)-4-methyl-5-phenylisoxazole], in data set [1] (100 mg/kg p.o.), the “Duration of the effect” value is above 90 min and the “Onset of the effect” value was found to be 5 min. Moreover, the inhibition in vivo at 100 mg/kg in data set [1] (setting [6]) worked out at 70%.
